# Earlier results in PubChem BioAssay AID1259409 (Chemical Carcinogenesis Research Information System (CCRIS), 2018).
# Test system: rodent chemically induced tumor inhibition, incidence and multiplicity
# Test: CCRIS tumor inhibitor studies
# Settings: Species: RAT, Promoter: NONE USED
SMILES,"tumour outcome (control, treated, inhibition, significance) (Carcinogen: AZOXYMETHANE, 25843-45-2, Dose [Inhibitor]: 0, 0.5 MG/KG IN 2 ML/KG 0.9% SALINE 1/2 D CONCURRENTLY WITH CARCINOGEN AND CONTINUING FOR STUDY DURATION (STUDY DURATION, Route [Inhibitor]: INTRAPERITONEAL, Strain/Sex: WISTAR/MALE, Target Tissue: Type of Lesion: COLON: ADENOMA, Dose [Carcinogen]: 7.4 MG/KG IN 0.9% SALINE 1/WK FOR 10 WK)","tumour outcome (control, treated, inhibition, significance) (Carcinogen: N-METHYL-N'-NITRO-N-NITROSOGUANIDINE, 70-25-7, Dose [Inhibitor]: 0, 0.25 MG/KG IN NACL INJECTED 1/2 D FOR DURATION OF STUDY BEGINNING 1 WK POST CARCINOGEN DOSE (STUDY DURATION: 52 WK), Route [Inhibitor]: INTRAPERITONEAL, Strain/Sex: WISTAR/MALE, Target Tissue: Type of Lesion: STOMACH: ADENOCARCINOMA, Dose [Carcinogen]: 50 UG/ML IN DRINKING WATER FOR 25 WK)","tumour outcome (control, treated, inhibition, significance) (Carcinogen: N-METHYL-N'-NITRO-N-NITROSOGUANIDINE, 70-25-7, Dose [Inhibitor]: 0, 0.5 MG/KG BW 1/2 D FOR DURATION OF STUDY BEGINNING 1 WK POST LAST CARCINOGEN DOSE (STUDY DURATION: 52 WK), Route [Inhibitor]: INTRAPERITONEAL, Strain/Sex: SHR/MALE, Target Tissue: Type of Lesion: STOMACH: ADENOCARCINOMA, Dose [Carcinogen]: 25 UG/ML IN DRINKING WATER FOR 25 WK)","tumour outcome (control, treated, inhibition, significance) (Carcinogen: N-METHYL-N'-NITRO-N-NITROSOGUANIDINE, 70-25-7, Dose [Inhibitor]: 0, 0.5 MG/KG BW 1/2 D FOR DURATION OF STUDY BEGINNING 1 WK POST LAST CARCINOGEN DOSE (STUDY DURATION: 52 WK), Route [Inhibitor]: INTRAPERITONEAL, Strain/Sex: WISTAR/MALE, Target Tissue: Type of Lesion: STOMACH: ADENOCARCINOMA, Dose [Carcinogen]: 25 UG/ML IN DRINKING WATER FOR 25 WK)","tumour outcome (control, treated, inhibition, significance) (Carcinogen: N-METHYL-N'-NITRO-N-NITROSOGUANIDINE, 70-25-7, Dose [Inhibitor]: 0, 0.5 MG/KG IN NACL INJECTED 1/2 D FOR DURATION OF STUDY BEGINNING 1 WK POST CARCINOGEN DOSE (STUDY DURATION: 52 WK), Route [Inhibitor]: INTRAPERITONEAL, Strain/Sex: WISTAR/MALE, Target Tissue: Type of Lesion: STOMACH: ADENOCARCINOMA, Dose [Carcinogen]: 50 UG/ML IN DRINKING WATER FOR 25 WK)","tumour outcome (control, treated, inhibition, significance) (Carcinogen: 1,2-DIMETHYLHYDRAZINE DIHYDROCHLORIDE, 306-37-6, Dose [Inhibitor]: 50 MG/L TAP WATER DAILY FOR 32 WK STARTING SIMULTANEOUSLY WITH CARCINOGEN TREATMENT (STUDY DURATION: 32 WK), Route [Inhibitor]: ORAL, Strain/Sex: SPRAGUE-DAWLEY/MALE, Target Tissue: Type of Lesion: LARGE INTESTINE: TUMOR, Dose [Carcinogen]: 20 MG/KG BW WEEKLY FOR 20 WK)","tumour outcome (control, treated, inhibition, significance) (Carcinogen: 1,2-DIMETHYLHYDRAZINE DIHYDROCHLORIDE, 306-37-6, Dose [Inhibitor]: 50 MG/L TAP WATER DAILY FOR 32 WK STARTING SIMULTANEOUSLY WITH CARCINOGEN TREATMENT (STUDY DURATION: 32 WK), Route [Inhibitor]: ORAL, Strain/Sex: SPRAGUE-DAWLEY/MALE, Target Tissue: Type of Lesion: SMALL INTESTINE: TUMOR, Dose [Carcinogen]: 20 MG/KG BW WEEKLY FOR 20 WK)"
NCc1cc(=O)[nH]o1,"3/17 (18%), 8/19 (42%), -133%, not significant","13/19 (68%), 12/20 (60%), 12%, not significant","10/20 (50%), 3/20 (15%), 70%, p<0.05","1/14 (7%), 0/15 (0%), 100%, not significant","13/19 (68%), 12/18 (67%), 2%, not calculated",,
Cc1ccc(Cl)c(Nc2ccccc2C(=O)O)c1Cl,,,,,,"88%, 90%, -2%, not significant","46%, 35%, 24%, not significant"
